Laboratory results as given in US20260130395A1, “Water Dispersible Botanical Compositions” (Aquila Black Limited, priority 2021, published 2026).

How the values were obtained:
[1] = Stability of cannabinoid compounds and Vitamin E components in Beverage 1 (AB White) by LCMSMS; format: physicochemical; settings: AB White stored at 21-25° C.
[2] = Stability of cannabinoid entourage and Vitamin E components of the powder concentrate by LCMSMS; format: physicochemical; settings: powder stored at 21-25° C.
Protocol: At each time period, 0.05 g of powder was dissolved in 10 ml-15 of ethanol, diluted to fall within the analytical range, and injected into the LCMSMS for analysis.

Compound: C=C(C)[C@@H]1CCC(C)=C[C@H]1c1c(O)cc(CCCCC)c(C(=O)O)c1O [CBDA, cannabidiolic acid]
- Stability of Plant-Derived Cannabinoid Compounds in AB White, 21-25° C. ([1]; 29 days): 1.76 µg/mL
- Stability of Plant-Derived Cannabinoid Compounds in AB White, 21-25° C. ([1]; 30 days): 1.71 µg/mL
- Stability of Plant-Derived Cannabinoid Compounds in AB White, 21-25° C. ([1]; 60 days): 1.68 µg/mL
- Stability of Plant-Derived Cannabinoid Compounds in AB White, 21-25° C. ([1]; 90 days): 1.67 µg/mL
- Stability of Plant-Derived Cannabinoid Compounds in AB White, 21-25° C. ([1]; 120 days): 1.66 µg/mL
- Stability of Plant-Derived Cannabinoid Compounds in AB White, 21-25° C. ([1]; 150 days): 1.64 µg/mL
- Stability of Plant-Derived Cannabinoid Compounds in AB White, 21-25° C. ([1]; 180 days): 1.69 µg/mL
- Stability of Plant-Derived Cannabinoid Compounds in AB White, 21-25° C. ([1]; 210 days): 1.73 µg/mL
- Stability of Plant-Derived Cannabinoid Compounds in AB White, 21-25° C. ([1]; 240 days): 1.73 µg/mL
- Stability of Plant-Derived Cannabinoid Compounds in AB White, 21-25° C. ([1]; 270 days): 1.71 µg/mL
- Stability of Plant-Derived Cannabinoid Compounds in AB White, 21-25° C. ([1]; 300 days): 1.73 µg/mL
- Stability of Plant-Derived Cannabinoid Compounds in AB White, 21-25° C. ([1]; 330 days): 1.72 µg/mL
- Stability of Plant-Derived Cannabinoid Compounds in AB White, 21-25° C. ([1]; 360 days): 1.69 µg/mL
- Stability of Plant-Derived Cannabinoid Compounds in AB White, 21-25° C. ([1]; 390 days): 1.67 µg/mL
- Stability of Plant-Derived Cannabinoid Compounds in AB White, 21-25° C. ([1]; 420 days): 1.64 µg/mL
- Stability of Plant-Derived Cannabinoid Compounds in AB White, 21-25° C. ([1]; 450 days): 1.70 µg/mL
- Stability of Plant-Derived Cannabinoid Compounds in AB White, 21-25° C. ([1]; 480 days): 1.63 µg/mL
- Stability of Plant-Derived Cannabinoid Compounds in AB White, 21-25° C. ([1]; 510 days): 1.66 µg/mL
- Stability of Plant-Derived Cannabinoid Compounds in AB White, 21-25° C. ([1]; 540 days): 1.63 µg/mL
- Stability of Plant-Derived Cannabinoid Compounds in AB White, 21-25° C. ([1]; 570 days): 1.61 µg/mL
- Stability of Plant-Derived Cannabinoid Compounds in Powder Concentrate ([2]; 0 days): 0.410 mg/g powder
- Stability of Plant-Derived Cannabinoid Compounds in Powder Concentrate ([2]; 1 days): 0.412 mg/g powder
- Stability of Plant-Derived Cannabinoid Compounds in Powder Concentrate ([2]; 2 days): 0.407 mg/g powder
- Stability of Plant-Derived Cannabinoid Compounds in Powder Concentrate ([2]; 3 days): 0.406 mg/g powder
- Stability of Plant-Derived Cannabinoid Compounds in Powder Concentrate ([2]; 5 days): 0.414 mg/g powder
- Stability of Plant-Derived Cannabinoid Compounds in Powder Concentrate ([2]; 8 days): 0.415 mg/g powder
- Stability of Plant-Derived Cannabinoid Compounds in Powder Concentrate ([2]; 9 days): 0.410 mg/g powder
- Stability of Plant-Derived Cannabinoid Compounds in Powder Concentrate ([2]; 10 days): 0.418 mg/g powder
- Stability of Plant-Derived Cannabinoid Compounds in Powder Concentrate ([2]; 11 days): 0.415 mg/g powder
- Stability of Plant-Derived Cannabinoid Compounds in Powder Concentrate ([2]; 12 days): 0.396 mg/g powder
- Stability of Plant-Derived Cannabinoid Compounds in Powder Concentrate ([2]; 15 days): 0.399 mg/g powder
- Stability of Plant-Derived Cannabinoid Compounds in Powder Concentrate ([2]; 16 days): 0.427 mg/g powder
- Stability of Plant-Derived Cannabinoid Compounds in Powder Concentrate ([2]; 17 days): 0.421 mg/g powder
- Stability of Plant-Derived Cannabinoid Compounds in Powder Concentrate ([2]; 18 days): 0.418 mg/g powder
- Stability of Plant-Derived Cannabinoid Compounds in Powder Concentrate ([2]; 19 days): 0.414 mg/g powder
- Stability of Plant-Derived Cannabinoid Compounds in Powder Concentrate ([2]; 22 days): 0.419 mg/g powder
- Stability of Plant-Derived Cannabinoid Compounds in Powder Concentrate ([2]; 23 days): 0.396 mg/g powder
- Stability of Plant-Derived Cannabinoid Compounds in Powder Concentrate ([2]; 24 days): 0.403 mg/g powder
- Stability of Plant-Derived Cannabinoid Compounds in Powder Concentrate ([2]; 25 days): 0.401 mg/g powder
- Stability of Plant-Derived Cannabinoid Compounds in Powder Concentrate ([2]; 26 days): 0.397 mg/g powder
- Stability of Plant-Derived Cannabinoid Compounds in Powder Concentrate ([2]; 29 days): 0.426 mg/g powder
- Stability of Plant-Derived Cannabinoid Compounds in Powder Concentrate ([2]; 30 days): 0.405 mg/g powder
- Stability of Plant-Derived Cannabinoid Compounds in Powder Concentrate ([2]; 60 days): 0.418 mg/g powder
- Stability of Plant-Derived Cannabinoid Compounds in Powder Concentrate ([2]; 90 days): 0.413 mg/g powder
- Stability of Plant-Derived Cannabinoid Compounds in Powder Concentrate ([2]; 120 days): 0.403 mg/g powder
- Stability of Plant-Derived Cannabinoid Compounds in Powder Concentrate ([2]; 150 days): 0.412 mg/g powder
- Stability of Plant-Derived Cannabinoid Compounds in Powder Concentrate ([2]; 180 days): 0.422 mg/g powder
- Stability of Plant-Derived Cannabinoid Compounds in Powder Concentrate ([2]; 210 days): 0.427 mg/g powder
- Stability of Plant-Derived Cannabinoid Compounds in Powder Concentrate ([2]; 240 days): 0.417 mg/g powder
- Stability of Plant-Derived Cannabinoid Compounds in Powder Concentrate ([2]; 270 days): 0.424 mg/g powder
- Stability of Plant-Derived Cannabinoid Compounds in Powder Concentrate ([2]; 300 days): 0.409 mg/g powder
- Stability of Plant-Derived Cannabinoid Compounds in Powder Concentrate ([2]; 330 days): 0.424 mg/g powder
- Stability of Plant-Derived Cannabinoid Compounds in Powder Concentrate ([2]; 360 days): 0.413 mg/g powder
- Stability of Plant-Derived Cannabinoid Compounds in Powder Concentrate ([2]; 390 days): 0.407 mg/g powder
- Stability of Plant-Derived Cannabinoid Compounds in Powder Concentrate ([2]; 420 days): 0.420 mg/g powder
- Stability of Plant-Derived Cannabinoid Compounds in Powder Concentrate ([2]; 450 days): 0.398 mg/g powder
- Stability of Plant-Derived Cannabinoid Compounds in Powder Concentrate ([2]; 480 days): 0.418 mg/g powder
- Stability of Plant-Derived Cannabinoid Compounds in Powder Concentrate ([2]; 510 days): 0.411 mg/g powder
- Stability of Plant-Derived Cannabinoid Compounds in Powder Concentrate ([2]; 540 days): 0.425 mg/g powder
- Stability of Plant-Derived Cannabinoid Compounds in Powder Concentrate ([2]; 570 days): 0.408 mg/g powder
